From PubChem BioAssay AID1845207 (Molecular Pharmacology Branch, DTP, NCI, 2023)

Test system: NCI-H1876 tumor spheroid viability
Experiment: Anticancer human tumor NCI-H1876 cell line growth inhibition;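 note: spheroids exposed to compounds for seven days before the viability read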;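 for viability, T/C: percent of DMSO vehicle control viability so 100% = vehicle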
Conditions: spheroids with HUVEC and MSC; for IC50: curve of first compound; for viability, T/C: stronger effect = lower value; active = viability on the fitted dose curve at most 10% of control; inactive = the rest
From the text: Multicellular complex tumor spheroid response to DNA repair inhibitors in combination with DNA-damaging drugs
This study explores the anticancer activities of DNA-damaging drugs and inhibitors of DNA damage repair, both as single agents and in combinations. Complex tumor spheroids comprised of malignant cells, endothelial cells and mesenchymal stem cells served as an in vitro model for human solid tumors. This model system incorporates physiologically relevant features and patient-derived or established malignant cell lines with clinically relevant genetic alterations from many tumor types. Twenty-six patient-derived or established malignant cell lines were evaluated representing sarcoma, melanoma, small cell lung cancer (SCLC), non-small cell lung cancer (NSCLC), as well as bladder, ovarian and pancreatic cancers. The concentration ranges selected for each drug and investigational agent were based upon clinically achievable concentrations if the clinical Cmax of the agent was known.
Compounds. The drugs and compounds olaparib (NSC753686), talazoparib (NSC767125), berzosertib (NSC777718), elimusertib (NSC800525), nedisertib (NSC802822), VX-984 (NSC792969), AZD-1390 (NSC803789), temozolomide (NSC362856), topotecan (NSC609699), trabectedin (NSC813783), staurosporine (NSC755774), and gemcitabine (NSC613327) were obtained from the National Cancer Institute (NCI) Developmental Therapeutics Program Chemical Repository. The FDA-approved anticancer drug set is available from the Developmental Therapeutics Program at https://dtp.cancer.gov/organization/dscb/obtaining/available_plates.htm. […] The stock solutions were prepared in dimethyl sulfoxide (DMSO, Sigma-Aldrich, St. Louis, MO, cat. D2650) at 400-fold the tested concentration and stored at -70 degrees C. Prior to their use, the stock solutions were diluted in fresh medium and the final DMSO concentration in the assay was 0.25% (v/v). All drugs and investigational agents were tested over a range starting from a high concentration at or near the clinical Cmax and decreasing in half-log increments. If the clinical Cmax for an agent had not been determined, the highest concentration tested was 10 microM.
Cell Lines. The patient-derived cancer cell (PDC) lines: 156681-154-R-J1-PDC, 283228-195-R-J1-PDC, 287954-098-R-J1-PDC, 292921-168-R-J2-PDC, 349418-098-R-PDC, 425362-245-T-J1-PDC, 556581-035-R-J1-PDC, and BL0293-F563-PDC were received from the NCI Patient-Derived Models Repository (PDMR, https://pdmr.cancer.gov). The established cell lines HS-SY-2 (RRID:CVCL_8719), MPNST, and SYO-1 (RRID:CVCL_7146) were obtained from the Sloan Kettering Institute. The alveolar soft parts sarcoma cell line ASPS-1 (RRID:CVCL_S738) was established at the NCI and grown from internal seed stocks. The following established cell lines were purchased from the American Type Culture Collection (ATCC, Manassas, VA): G-401 (ATCC, cat. CRL-1441, RRID:CVCL_0270), SW982 (ATCC, cat. HTB-93, RRID:CVCL_1734), VA-ES-BJ (ATCC, cat. CRL-2138, RRID:CVCL_1785), NCI-H719 (ATCC, cat. CRL-5837, RRID:CVCL_1582), NCI-H196 (ATCC, cat. CRL-5823, RRID:CVCL_1509), NCI-H841 (ATCC, cat. CRL-5845, RRID:CVCL_1595), NCI-H1618 (ATCC, cat. CRL-5879, RRID:CVCL_1480), NCI-H1876 (ATCC, cat. CRL-5902, RRID:CVCL_1503), DMS 114 (ATCC, cat. CRL-2066; RRID:CVCL_1174), NCI-H211 (ATCC, cat. CRL-5824; RRID:CVCL_1529), and SW 1271 (ATCC, cat. CRL-2177, RRID:CVCL_1716). The small cell lung cancer cell line COR-L88 was purchased from Sigma-Aldrich (cat. 92031917-1VL, RRID:CVCL_1141). The non-small cell lung cancer cell lines NCI-H226 (RRID:CVCL_1544) and NCI-H322M (RRID:CVCL_1557) were established at the NCI and grown from internal seed stocks. Pooled donor human umbilical vein endothelial cells (HUVEC, Lonza, cat. CC-2519) and human mesenchymal stem cells (hMSC, Lonza, cat. PT-2501) were purchased from Lonza (Walkersville, MD).
Cell Culture. All cells were maintained in an incubator at 37 degrees C and 5% CO2 with 95% humidity. […]

[1] = second compound 0.003 µM, first compound 0.0949 µM
[2] = second compound 0.003 µM, first compound 0.3 µM
[3] = second compound 0.003 µM, first compound 0.949 µM
[4] = second compound 0.003 µM, first compound 3 µM
[5] = second compound 0.00949 µM, first compound 0.0949 µM
[6] = second compound 0.00949 µM, first compound 0.3 µM
[7] = second compound 0.00949 µM, first compound 0.949 µM
[8] = second compound 0.00949 µM, first compound 3 µM
[9] = second compound 0.03 µM, first compound 0.0949 µM
[10] = second compound 0.03 µM, first compound 0.3 µM
[11] = second compound 0.03 µM, first compound 0.949 µM
[12] = second compound 0.03 µM, first compound 3 µM
[13] = second compound 0.0949 µM, first compound 0.0949 µM
[14] = second compound 0.0949 µM, first compound 0.3 µM
[15] = second compound 0.0949 µM, first compound 0.949 µM
[16] = second compound 0.0949 µM, first compound 3 µM
[17] = second compound 0.3 µM, first compound 0.0949 µM
[18] = second compound 0.3 µM, first compound 0.3 µM
[19] = second compound 0.3 µM, first compound 0.949 µM
[20] = second compound 0.3 µM, first compound 3 µM

Cn1ncnc1[C@H]1c2n[nH]c(=O)c3cc(F)cc(c23)N[C@@H]1c1ccc(F)cc1 + CC[C@@]1(O)C(=O)OCc2c1cc1n(c2=O)Cc2cc3c(CN(C)C)c(O)ccc3nc2-1
active: viability, T/C [4] 0.18% | viability, T/C [7] 6.41% | viability, T/C [8] 0.15% | viability, T/C [11] 5.53% | viability, T/C [12] 0.13% | viability, T/C [14] 10.3% | viability, T/C [15] 3.73% | viability, T/C [16] 0.14% | viability, T/C (second compound 0.3 µM, first compound 0.00949 µM) 3.72% | viability, T/C (second compound 0.3 µM, first compound 0.03 µM) 3.65% | viability, T/C [17] 3.75% | viability, T/C [18] 3.83% | viability, T/C [19] 1.56% | viability, T/C [20] 13.9%
inactive: viability, T/C (second compound 0.003 µM, first compound 0.00949 µM) 71% | viability, T/C (second compound 0.003 µM, first compound 0.03 µM) 60.4% | viability, T/C [1] 36% | viability, T/C [2] 39.9% | viability, T/C [3] 6.31% | viability, T/C (second compound 0.00949 µM, first compound 0.00949 µM) 44.6% | viability, T/C (second compound 0.00949 µM, first compound 0.03 µM) 37.4% | viability, T/C [5] 29% | viability, T/C [6] 19.4% | viability, T/C (second compound 0.03 µM, first compound 0.00949 µM) 14.9% | viability, T/C (second compound 0.03 µM, first compound 0.03 µM) 28.7% | viability, T/C [9] 18.9% | viability, T/C [10] 18% | viability, T/C (second compound 0.0949 µM, first compound 0.00949 µM) 9.15% | viability, T/C (second compound 0.0949 µM, first compound 0.03 µM) 28.8% | viability, T/C [13] 10.8%
< 9.49 nM: IC50 (second compound 0.00949 µM) | IC50 (second compound 0.03 µM) | IC50 (second compound 0.0949 µM) | IC50 (second compound 0.3 µM)
57.9 nM: IC50 (second compound 0.003 µM)

O=C(c1cc(Cc2n[nH]c(=O)c3ccccc23)ccc1F)N1CCN(C(=O)C2CC2)CC1 + CC[C@@]1(O)C(=O)OCc2c1cc1n(c2=O)Cc2cc3c(CN(C)C)c(O)ccc3nc2-1
325 nM: IC50 (second compound 0.003 µM)
active: viability, T/C [17] 4.06% | viability, T/C [18] 3.8% | viability, T/C [19] 4.04% | viability, T/C [20] 5.04% | viability, T/C (second compound 0.3 µM, first compound 9.49 µM) 13.5% | viability, T/C (second compound 0.3 µM, first compound 30 µM) 9.66%
inactive: viability, T/C [1] 60.1% | viability, T/C [2] 49.8% | viability, T/C [3] 41.9% | viability, T/C [4] 30.9% | viability, T/C (second compound 0.003 µM, first compound 9.49 µM) 22% | viability, T/C (second compound 0.003 µM, first compound 30 µM) 16% | viability, T/C [5] 21.2% | viability, T/C [6] 21% | viability, T/C [7] 19.2% | viability, T/C [8] 20.6% | viability, T/C (second compound 0.00949 µM, first compound 9.49 µM) 35.5% | viability, T/C (second compound 0.00949 µM, first compound 30 µM) 15.7% | viability, T/C [9] 12.3% | viability, T/C [10] 12.6% | viability, T/C [11] 13.7% | viability, T/C [12] 23.3% | viability, T/C (second compound 0.03 µM, first compound 9.49 µM) 18.2% | viability, T/C (second compound 0.03 µM, first compound 30 µM) 14.3% | viability, T/C [13] 35.7% | viability, T/C [14] 7.72% | viability, T/C [15] 8.21% | viability, T/C [16] 10% | viability, T/C (second compound 0.0949 µM, first compound 9.49 µM) 12.8% | viability, T/C (second compound 0.0949 µM, first compound 30 µM) 14.4%
< 94.9 nM: IC50 (second compound 0.00949 µM) | IC50 (second compound 0.03 µM) | IC50 (second compound 0.0949 µM) | IC50 (second compound 0.3 µM)
